From US20140220081A1, “USE OF A GALACTOSE-DERIVED C-GLYCOSIDE COMPOUND AS AN AGENT FOR ACTIVATING AND REGULATING CUTANEOUS IMMUNITY” (L'OREAL, priority 2006, published 2014)

System: human peripheral blood cells
Experiment: Immunostimulant activity: human lymphocyte proliferation revealed by BrdU labelling
Type: cell-based
Conditions: for % stimulation relative to the control: 3 days of culture, BrdU labelling
Method: The immunostimulant activity is tested in the following way: human peripheral blood cells are cultured in the presence of an RPMI-type culture medium supplemented with L-glutamine (2 mM), penicillin/streptomycin (50 μg/50 IU/ml) and foetal calf serum (10%). The C-glycoside derivatives are added at various concentrations (10 to 0.05 mM), as is phyto-haemagglutinin (PHA at 5 […]), a positive control for lymphocyte proliferation.

## CC(=O)C[C@@H]1O[C@H](CO)[C@H](O)[C@H](O)[C@H]1O [Compound 1, 1-(C-β-galactopyranosyl)propan-2-one]
0.05 mM
  % stimulation relative to the control: 91%
0.1 mM
  % stimulation relative to the control: 89%
0.5 mM
  % stimulation relative to the control: 130%
1 mM
  % stimulation relative to the control: 138%
5 mM
  % stimulation relative to the control: 261%
10 mM
  % stimulation relative to the control: 271%
All the concentrations tested (10 to 0.05 mM)
  human lymphocyte proliferation (result in words): tendency to stimulate human lymphocyte proliferation at all the concentrations tested
